The text below walks through data of patent US10292963B2, “Suppression and treatment of viruses” (priority 2013, dated 2019).

The assay is described as follows: Additional benefits observed in people taking betaine. Type of assay: in vivo, human. An excerpt:
While the main benefit of a person or pet taking vitamin C and betaine in combination is the prevention/suppression of tumors, as mentioned before, additional benefits can be obtained depending upon the levels taken. Betaine is known to improve cardiovascular health, and can benefit people with fatty deposits in the liver. […] After only a few weeks of taking the betaine, cholesterol levels are reduced and the ability to lose weight is improved.

The mark [1] stands for this setting: after only a few weeks of taking the betaine.

Structures are written as SMILES.

Take `C[N+](C)(C)CC(=O)[O-]` [betaine, trimethylglycine]: under “after a few doses at about one and a half to about three grams per day, especially older people”, the “tendency to be light headed on getting up after prolonged squatting or kneeling” value is recorded as “considerably lessened”. Besides, under setting [1], the “ability to lose weight” value is recorded as “improved” and the cholesterol levels result is recorded as “reduced”.
